Data on 89 molecules can be found in PubChem BioAssay AID463199 (Broad Institute, 2010).

The test system of the assay is S. cerevisiae Burl-1 ts mutant growth, BacTiter-Glo, 38.5C 24 h. Nature of the assay: growth induction of Burl-1 ts yeast mutant, dose response, counter-screen for SUMOylation pathway inhibitor project, whole organism, S. cerevisiae, luminescence (AID 463199).

Active and inactive are the calls of the source.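 How the source made its calls: active means AC50, the dose giving half-maximal effect, exceeds a fixed cutoff for a compound that rescues yeast growth under heat; inactive means the rest, inconclusive results apart.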

Consider `O=C(CSc1nnc(CNC(=O)c2ccccc2)o1)NCc1ccco1`, for which the AC50 was > 42 µM (inactive).

Regarding `COc1cc2ccccc2cc1C(=O)Nc1ccc(CN2CCOCC2)cc1`, the AC50 was > 42 µM (inactive).

In the case of `CNS(=O)(=O)c1cccc(C(=O)NCC2(N3CCCCC3)CCCCC2)c1`, the AC50 was > 42 µM (inactive).

`COc1ccc(C(=O)NCCSc2ccc(C)cc2)cc1`: the AC50 is > 42 µM (inactive).

Take `O=C(CSc1nnc(-c2ccccc2Cl)o1)Oc1ccc(Br)cc1`: the AC50 was > 42 µM (inactive).

For `COc1ccc(NC(=O)c2cc(C)no2)cc1Cl`, the AC50 is > 42 µM (inactive).

As to `CCOc1ccc(OCC)c(NC(=O)C2COc3ccccc3O2)c1` (centres undefined), the AC50 was > 42 µM (inactive).

On to `CCOC(=O)c1c(C)[nH]c(C(=O)COC(=O)c2ccncc2)c1C`, for which the AC50 was > 42 µM (inactive).

Turning to `CCn1c(SCC(=O)N/N=C/c2ccccc2OCC(=O)O)nnc1-c1ccc(C(C)(C)C)cc1`, the AC50 is > 42 µM (inactive).

Consider `Nc1ccc(C2(c3ccc(N)cc3)OC(=O)c3ccccc32)cc1`, for which the AC50 is > 42 µM (inactive).

As for `Cc1cc(C(=O)NNC(=O)c2ccc(C)s2)c(C)o1`, the AC50 was > 42 µM (inactive).

In the case of `NC(=O)NC(=O)COC(=O)/C=C/c1cccs1`, the AC50 is > 42 µM (inactive).

In the case of `O=C(NCCc1c[nH]c2ccccc12)c1cc(S(=O)(=O)N2CCCCC2)ccc1N1CCOCC1`, the AC50 was > 42 µM (inactive).

For `CCOc1ccc(CCNC(=O)COC(=O)c2cccc(OC)c2O)cc1OCC`, the AC50 is > 42 µM (inactive).

In the case of `Cc1cccc(N2CCN(C(=O)CN3C(=O)NC(C)(C)C3=O)CC2)c1C`, the AC50 is > 42 µM (inactive).

In the case of `COc1cccc(/C=N/NC(=O)CCn2cnc3ccccc32)c1`, the AC50 is > 42 µM (inactive).

For the molecule `O=C1CN(C(=O)c2ccccc2F)C(c2ccccc2)c2cc(Cl)ccc2N1` (centres undefined), the AC50 is > 42 µM (inactive).

Consider `COCCn1c(SCC(=O)Nc2nc3ccccc3s2)nnc1-c1ccoc1C`, for which the AC50 is > 42 µM (inactive).

Take `CCOC(C(=O)OCCCN(CC)CC)(c1ccccc1)c1ccccc1`: the AC50 is > 42 µM (inactive).

For the molecule `Cc1ccc(CC(=O)O/N=C(\N)c2cccc([N+](=O)[O-])c2)cc1`, the AC50 is > 42 µM (inactive).

For the molecule `CCc1ccc(-c2nc(SCC(=O)N3CCOCC3)n[nH]2)cc1`, the AC50 is > 42 µM (inactive).

Take `COc1ccccc1C(=O)N(NC(=O)Oc1ccccc1)C(C)(C)C`: the AC50 was > 42 µM (inactive).

With `Cc1nc(NC(=O)CSc2nc(N)cc(N)n2)sc1C`, the AC50 was > 42 µM (inactive).

`C/C(=N\NC(=O)Cc1csc(N2CCOCC2)n1)c1ccccc1`: the AC50 is > 42 µM (inactive).

Turning to `Cc1ccccc1OCc1nc(-c2ccccc2)no1`, the AC50 was > 42 µM (inactive).

Take `CCOc1ccc(N(CC)S(=O)(=O)c2cccc3nsnc23)cc1`: the AC50 is > 42 µM (inactive).

Consider `CN(CC(=O)NCc1cccs1)S(=O)(=O)c1cccc2nsnc12`, for which the AC50 was > 42 µM (inactive).

Turning to `Cc1cc(NC(=O)c2ccc(N3C(=O)CCC3=O)cc2)no1`, the AC50 is > 42 µM (inactive).

Consider `CCCOC(=O)c1c(NC(=O)/C=C/c2cnn(C)c2C)sc(C(=O)OC)c1C`, for which the AC50 was > 42 µM (inactive).

Take `COc1ccc2c(c1)[C@H]1[C@H](CO2)[C@H](c2ccccc2)[C@]2(C)C(=O)Nc3ccc(C)cc3C(=O)N12`: the AC50 is > 42 µM (inactive).

Take `CCC(CC)C(=O)N1CCCC(c2nc(-c3cccs3)no2)C1` (centres undefined): the AC50 was > 42 µM (inactive).

On to `COc1ccc(/C=C2\SC(=S)N(CCCC(=O)Nc3cc(C)on3)C2=O)cc1OC`, for which the AC50 is > 42 µM (inactive).

Take `O=C(c1ccc(Br)cc1)C(CN1CCOCC1)c1ccccc1` (centres undefined): the AC50 is 1.86 µM.

With `CCOc1ccc(Cl)cc1CNc1nnnn1CC`, the AC50 is > 42 µM (inactive).

In the case of `Cc1nc(NCCN2CCOCC2)c2nnn(Cc3c(F)cccc3Cl)c2n1`, the AC50 was > 42 µM (inactive).

For the molecule `Fc1cccc(F)c1-c1nc(-c2ccncc2)no1`, the AC50 was > 42 µM (inactive).

As for `CCOc1ccc(NC(=O)CC2C(=O)N(c3ccccc3)C(=S)N2Cc2ccccn2)cc1` (centres undefined), the AC50 is > 42 µM (inactive).

On to `O=C1CC(N(CCc2ccccc2)C(=S)Nc2ccccc2)C(=O)N1c1ccc(F)cc1` (centres undefined), for which the AC50 was > 42 µM (inactive).

On to `CC(=O)N1CCN(CC(O)COc2ccc(OCc3ccccc3)cc2)CC1` (centres undefined), for which the AC50 was > 42 µM (inactive).

As for `O=C(/C=C/c1cccc([N+](=O)[O-])c1)NCCSCc1ccc(Cl)cc1Cl`, the AC50 was > 42 µM (inactive).

`Cc1ccc(S(=O)(=O)NNC(=O)c2cc3cc4ccccc4nc3s2)cc1`: the AC50 is > 42 µM (inactive).

Regarding `CCOC(=O)c1sc2ncn(C(CC)C(=O)OCC)c(=O)c2c1C` (centres undefined), the AC50 was > 42 µM (inactive).

As for `CCC(Cc1ccccc1)NC(=O)C1CCN(c2nn3c(=O)cc(C)nc3s2)CC1` (centres undefined), the AC50 is > 42 µM (inactive).

As for `COC(=O)[C@@]12CCCCN1[C@H](c1ccc(-c3ccc(C(C)=O)cc3)cc1)[C@@H]1C(=O)N(C)C(=O)[C@@H]12`, the AC50 is > 42 µM (inactive).

`CCOc1ccc(N(C(=O)C2CCCO2)C2C=CS(=O)(=O)C2)cc1` (centres undefined): the AC50 is > 42 µM (inactive).

Consider `Clc1ccc(CONc2ncnc3nonc23)c(Cl)c1`, for which the AC50 was 9.28 µM.

Regarding `Cn1c(=O)[nH]c(=O)c2c1nc(NCCN)n2CCOc1ccccc1`, the AC50 was > 42 µM (inactive).

Consider `COc1ccc(C(=O)COc2ccc3ccc(=O)oc3c2)cc1`, for which the AC50 is > 42 µM (inactive).

Regarding `Oc1ccc(C2=CSC3=NCCN23)cc1O`, the AC50 is > 42 µM (inactive).

For `Cc1nn(C(C)(C)C)c(OC(=O)c2ccc3c(c2)OCO3)c1S(=O)(=O)c1ccccc1`, the AC50 was > 42 µM (inactive).

As to `O=C(/C=C/NNC(=O)c1ccc(Br)cc1)c1ccccc1`, the AC50 is > 42 µM (inactive).

With `CCN(CC)c1ccc(Nc2cc3n(c(=O)n2)CCc2cc(OC)c(OC)cc2-3)cc1`, the AC50 is > 42 µM (inactive).

For the molecule `O=C(O)C1CCCN1C(=O)c1cncc(Br)c1` (centres undefined), the AC50 is > 42 µM (inactive).

`Cc1nn(C)c(C)c1-c1c(C#N)c(N)nc2c1CCCCCC2`: the AC50 was > 42 µM (inactive).

For `O=S(=O)(c1ccccc1)N1CCN(c2nc3ccccc3s2)CC1`, the AC50 is > 42 µM (inactive).

Consider `O=C1c2ccccc2C(=O)N1CCSc1ccccc1`, for which the AC50 is > 42 µM (inactive).

For the molecule `Cn1cccc1CC(=O)N/N=C/c1cccc([N+](=O)[O-])c1`, the AC50 is > 42 µM (inactive).

As for `COc1ccc(NC(=S)NC(=O)C2CCC2)cc1`, the AC50 is > 42 µM (inactive).

Take `O=C(c1cc(Cl)c(=O)n(Cc2ccc(Cl)cc2)c1)N1CCOCC1`: the AC50 was > 42 µM (inactive).

With `Nc1ccc(S(=O)(=O)NNC(=O)C(=O)NNc2ccccc2)cc1`, the AC50 was > 42 µM (inactive).

`CC(=O)N(C)c1ccc(N2CCOCC2)c2c1C(=O)c1ccccc1C2=O`: the AC50 is > 42 µM (inactive).

For the molecule `COc1ccccc1NC(=O)c1nn(C)cc1Br`, the AC50 is > 42 µM (inactive).

`COc1cc2nc(CSc3ncn[nH]3)[nH]c(=O)c2cc1OC`: the AC50 was > 42 µM (inactive).

For `O=S(=O)(Nn1c(O)c(C=C2N=c3ccccc3=N2)sc1=S)c1ccccc1`, the AC50 is > 42 µM (inactive).

Turning to `CCN=C1S/C(=C/c2ccc(-c3ccc(F)cc3)o2)C(=O)N1CC`, the AC50 is > 42 µM (inactive).

Regarding `COC(=O)c1c(C)n(Cc2ccc3c(c2)OCO3)c2ccc(O)cc12`, the AC50 is > 42 µM (inactive).

For `Cc1ccc(NC(=O)C(=O)NCC2CCCN2S(=O)(=O)c2cccs2)cc1` (centres undefined), the AC50 was > 42 µM (inactive).

In the case of `Cc1nc(CCNC(=O)c2ccccc2)cs1`, the AC50 was > 42 µM (inactive).

Regarding `CC1C(=O)CC(c2ccccc2)N(C)C1c1ccccc1` (centres undefined), the AC50 is > 42 µM (inactive).

Take `Cc1[nH]oc(=O)c1N=Nc1ccccc1`: the AC50 was > 42 µM (inactive).

With `COc1ccc2c(c1)c(CC(=O)OCC(N)=O)c(C)n2C(=O)c1ccc(Cl)cc1`, the AC50 was > 42 µM (inactive).

In the case of `O=C1c2ccccc2C(=O)N1CCCCSc1nc2ccccc2c(=O)n1CCCN1CCOCC1`, the AC50 is > 42 µM (inactive).

Turning to `Cc1cc(NC(=O)c2ccc3c(c2)C(=O)N(C(C)(C)C)C3=O)no1`, the AC50 is > 42 µM (inactive).

In the case of `Cc1ccc(S(=O)(=O)N2CCN(C(=O)CSc3nc(N)cc(=O)[nH]3)CC2)c(C)c1`, the AC50 is > 42 µM (inactive).

For `Cc1cc(C)n(C(=O)CNC(=O)c2ccc3c(c2)OCCO3)n1`, the AC50 was > 42 µM (inactive).

`C=CCn1c(-c2ccc(OC)cc2)nc2ccccc21`: the AC50 is > 42 µM (inactive).

Consider `c1ccc2c(c1)[nH]c1c(N3CCN(C4CCCCC4)CC3)ncnc12`, for which the AC50 was 39.8 µM.

For the molecule `CCn1cnc2sc(-c3ccccc3)cc2c1=O`, the AC50 is > 42 µM (inactive).

In the case of `CC(c1ccccn1)N(CCN(C)C)C(=S)Nc1cccc(F)c1` (centres undefined), the AC50 was > 42 µM (inactive).

Consider `COC(CNC(=O)c1cn(C)c2ccc(S(=O)(=O)N3CCOCC3)cc2c1=O)OC`, for which the AC50 is > 42 µM (inactive).

As to `CN1C(=O)c2ccc(NC(=S)NC(=O)C(C)(C)C)cc2C1=O`, the AC50 is > 42 µM (inactive).

Regarding `CCS(=O)(=O)N1CCC(C(=O)NCCCN2CCN(c3ccccc3F)CC2)CC1`, the AC50 was > 42 µM (inactive).

For `c1coc(C2OCC3(CO2)COC(c2ccco2)OC3)c1` (centres undefined), the AC50 was > 42 µM (inactive).

For `Oc1c(Br)cc(Br)cc1/C=N/N1CCN(Cc2ccccc2)CC1`, the AC50 was > 42 µM (inactive).

Turning to `Brc1ccc(-c2cn3cccnc3n2)cc1`, the AC50 is > 42 µM (inactive).

On to `CCCN1C(=O)c2ccccc2NC1c1ccc(C)cc1` (centres undefined), for which the AC50 was > 42 µM (inactive).

For the molecule `COc1ccc(NC(=O)CN(C)C(=O)/C=C/c2cn(-c3ccccc3)nc2-c2ccc(C)cc2)cc1`, the AC50 is > 42 µM (inactive).

On to `CCCCNS(=O)(=O)c1ccc(OC)cc1`, for which the AC50 was > 42 µM (inactive).

In the case of `CCOc1ccc(C(=O)c2cccs2)cc1`, the AC50 was > 42 µM (inactive).
